Test results from US20230365618A1, “CRYSTALLINE THIOCHOLESTEROL” (Durect Corporation, priority 2020, published 2023).

Columns and labels:
[1] = system: lipid biosynthesis; cholesterol secretion and degradation; conditions: shown previously; cited from earlier work
[2] = Dynamic vapor sorption/desorption (DVS); format: physicochemical; conditions: for hygroscopicity: DVS plot
[3] = Relative thermodynamic stability of the forms from crystal density, DSC melt onset and heat of fusion; format: physicochemical; conditions: suggested by higher crystal density and melt onset (with higher heat of fusion)
Protocol: A tau lag adjustment is performed with indium, tin, and zinc. […] The adjustment is then verified with octane, phenyl salicylate, indium, tin, and zinc. […] A weighed aluminum pan configured as the sample pan was placed on the […] side of the cell.

SMILES | cholesterol secretion and degradation [1] | lipid biosynthesis [1] | weight change during the DVS cycle ([2]; 5% to 95% RH, sorption and desorption, FIG. 6) [%] | hygroscopicity ([2]; FIG. 6) | hygroscopicity ([2]; FIG. 6, listed as Crystalline thiocholesterol Form A) | solid form of material recovered from the DVS experiment (x-ray powder diffraction) ([2]; after DVS cycle 5% to 95% RH) | thermodynamic stability relative to another form [3]
CC(C)CCC[C@@H](C)[C@H]1CC[C@H]2[C@@H]3CC=C4C[C@@H](S)CC[C@]4(C)[C@H]3CC[C@]12C [Thiocholesterol, (3 S,8S,9S,10R,13R,14S,17R)-17-[(1R)-1,5-dimethylhexyl]-10,13-dimethyl-2,3,4,7,8,9,11,12,14,15,16,17-dodecahydro-1H-cyclopenta[a] phenanthrene-3-thiol] | increases | decreases | – | – | – | – | –
CC(C)CCC[C@@H](C)[C@H]1CC[C@H]2[C@@H]3CC=C4C[C@@H](S)CC[C@]4(C)[C@H]3CC[C@]12C [crystalline thiocholesterol Form A] | – | – | 0.25 | low hygroscopicity | non-hygroscopic | identified as crystalline thiocholesterol Form A | more thermodynamically stable than Crystalline Thiocholesterol Form B
